Experimental data reported in patent US20140212407A1, “TREATMENT OF OBESITY” (Isis Innovation Limited, priority 2008, published 2014).

What was measured:
[1] = Badiou et al. 2005; cited from earlier work
[2] = Body weight and food intake in rats on MR diet with or without L-cysteine, 3 weeks; format: in vivo, rat; details: L-cysteine 5 g/kg added to MR diet, preliminary
Text: To distinguish the effect of cysteine on body weight from that of methionine, the same experiment described above was repeated with addition of a third group. In addition to the methionine restricted (MR) and control groups, a third group was included comprising rats fed an MR diet supplemented with L-cysteine at a concentration of 5 g/kg diet. Age of the rats at the start of experiment, housing conditions and MR and control diets were similar to those in the above experiment. Food and water were provided ad libitum. Each group consisted of 8 rats; there was no significant difference in body weight between the 3 groups at baseline.

gene for CGL = details: by inhibition of the ERK/Sp1 signalling pathway; Fiorucci et al 2005; cited from earlier work
[3] = humans, concentration-dependent; Smith et al 2003; cited from earlier work
[4] = target: cystathionine γ-lyase (CGL) (Homo sapiens, UniProt P32929); details: Steegborn et al J Biol Chem 1999; cited from earlier work
cystathionine γ-lyase (CGL), sequence (P32929 whole entry): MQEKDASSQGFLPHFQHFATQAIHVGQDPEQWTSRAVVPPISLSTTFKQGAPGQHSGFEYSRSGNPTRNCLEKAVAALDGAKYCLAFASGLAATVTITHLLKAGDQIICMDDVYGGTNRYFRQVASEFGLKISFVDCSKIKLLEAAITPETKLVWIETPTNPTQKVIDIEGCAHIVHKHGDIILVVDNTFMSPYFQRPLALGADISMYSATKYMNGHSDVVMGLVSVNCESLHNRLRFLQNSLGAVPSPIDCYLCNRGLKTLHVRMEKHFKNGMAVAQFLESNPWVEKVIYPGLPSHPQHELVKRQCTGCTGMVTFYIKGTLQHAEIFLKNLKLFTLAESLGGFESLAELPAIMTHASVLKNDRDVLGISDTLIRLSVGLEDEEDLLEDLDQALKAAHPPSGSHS

CC1(C)C[C@@H]1C(=O)N/C(=C\CCCCSC[C@H](N)C(=O)O)C(=O)O [Cilastatin, cilastatin]
plasma cysteine levels [1]: lowers plasma cysteine levels

N[C@@H](CS)C(=O)O [L-cysteine]
effect on weight gain of MR rats [2]: prevented the decrease in weight gain

CC(=O)Oc1ccccc1C(=O)O [aspirin]
expression of the gene for CGL (gene for CGL): reduce expression

COc1ccc2c(c1)c(CC(=O)O)c(C)n2C(=O)c1ccc(Cl)cc1 [indomethacin]
expression of the gene for CGL (gene for CGL): reduce expression

CC(C(=O)O)c1cccc(C(=O)c2ccccc2)c1 (stereo not shown) [ketoprofen]
expression of the gene for CGL (gene for CGL): reduce expression

O=S(=O)(O)CCS [mesna]
plasma level of cysteine [3]: markedly reduces

C#CCC(N)C(=O)O (stereo not shown) [propargylglycine]
inhibition of CGL enzyme activity [4]: potent inhibitors
